Source: patent US8791132B2, “Compounds and methods for treatment of hypertension” (Medivation Technologies, Inc., priority 2011, dated 2014)

How the values were obtained:
[1] = biological target: T1, human recombinant adrenergic α2A receptor (Homo sapiens, UniProt P08913); experiment: Radioligand binding, adrenergic α2A ([3H]MK-912); conditions: compound at 0.1 μM; [3H]MK-912; repeat datapoints each shown; 0.1 µM
T1 construct: expressed in transfected cells; host or cells: insect Sf9 cells
T1 sequence (P08913 1-465): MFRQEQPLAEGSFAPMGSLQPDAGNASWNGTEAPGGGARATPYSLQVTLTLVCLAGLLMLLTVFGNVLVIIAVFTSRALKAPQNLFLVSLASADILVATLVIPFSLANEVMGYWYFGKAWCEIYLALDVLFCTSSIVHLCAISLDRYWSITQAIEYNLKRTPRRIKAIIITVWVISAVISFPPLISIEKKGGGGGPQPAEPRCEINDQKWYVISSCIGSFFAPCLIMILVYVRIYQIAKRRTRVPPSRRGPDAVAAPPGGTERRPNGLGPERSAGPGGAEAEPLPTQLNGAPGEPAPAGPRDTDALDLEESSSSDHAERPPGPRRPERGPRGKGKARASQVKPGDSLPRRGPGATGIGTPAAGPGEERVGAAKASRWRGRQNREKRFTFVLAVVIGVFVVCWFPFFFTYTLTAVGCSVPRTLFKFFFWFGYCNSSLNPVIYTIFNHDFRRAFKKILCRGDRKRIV
Procedure, shortened: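 Sf9 membranes, 1 nM [3H]MK-912, 60 min, 25 °C, Tris-HCl pH 7.4/MgCl2/EDTA buffer. NSB: 10 μM WB-4101. Filtration, counting; % inhibition of specific binding.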

[2] = biological target: T2, human recombinant adrenergic α2B receptor (Homo sapiens, UniProt P18089); experiment: Radioligand binding, adrenergic α2B ([3H]Rauwolscine); conditions: compound at 0.03 μM; [3H]Rauwolscine; repeat datapoints each shown; 0.03 µM
T2 construct: expressed in transfected cells; host or cells: CHO-K1
T2 sequence (P18089 1-450): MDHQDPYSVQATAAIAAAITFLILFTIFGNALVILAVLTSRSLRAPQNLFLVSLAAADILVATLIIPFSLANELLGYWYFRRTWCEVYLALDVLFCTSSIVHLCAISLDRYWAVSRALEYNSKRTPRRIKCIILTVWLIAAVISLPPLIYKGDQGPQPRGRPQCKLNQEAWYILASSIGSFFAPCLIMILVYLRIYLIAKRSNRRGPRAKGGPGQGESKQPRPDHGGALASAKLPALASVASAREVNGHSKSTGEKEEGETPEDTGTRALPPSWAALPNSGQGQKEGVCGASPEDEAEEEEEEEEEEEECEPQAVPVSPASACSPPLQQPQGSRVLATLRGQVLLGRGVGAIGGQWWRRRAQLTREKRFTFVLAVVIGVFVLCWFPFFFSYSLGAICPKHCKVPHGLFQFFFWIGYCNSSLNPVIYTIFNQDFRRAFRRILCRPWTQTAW
Procedure, shortened: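 Values are percent inhibition of specific radioligand binding. The receptor, expressed in CHO-K1 cells, was exposed to 2.5 nM [3H]Rauwolscine at 25° C for 60 min, with 10 μM Prazosin marking non-specific binding.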

[3] = biological target: T3, rat adrenergic α1B receptor (Rattus norvegicus, UniProt P15823); experiment: Radioligand binding, adrenergic α1B ([3H]Prazosin); conditions: [3H]Prazosin, repeat datapoints each shown; for Percentage inhibition of ligand binding, Adrenergic α1B (0.1 μM): compound at 0.1 μM
T3 construct: rat adrenergic α1B receptor obtained from Wistar Rat liver; from tissue; host or cells: Wistar rat liver
T3 sequence (P15823 1-515): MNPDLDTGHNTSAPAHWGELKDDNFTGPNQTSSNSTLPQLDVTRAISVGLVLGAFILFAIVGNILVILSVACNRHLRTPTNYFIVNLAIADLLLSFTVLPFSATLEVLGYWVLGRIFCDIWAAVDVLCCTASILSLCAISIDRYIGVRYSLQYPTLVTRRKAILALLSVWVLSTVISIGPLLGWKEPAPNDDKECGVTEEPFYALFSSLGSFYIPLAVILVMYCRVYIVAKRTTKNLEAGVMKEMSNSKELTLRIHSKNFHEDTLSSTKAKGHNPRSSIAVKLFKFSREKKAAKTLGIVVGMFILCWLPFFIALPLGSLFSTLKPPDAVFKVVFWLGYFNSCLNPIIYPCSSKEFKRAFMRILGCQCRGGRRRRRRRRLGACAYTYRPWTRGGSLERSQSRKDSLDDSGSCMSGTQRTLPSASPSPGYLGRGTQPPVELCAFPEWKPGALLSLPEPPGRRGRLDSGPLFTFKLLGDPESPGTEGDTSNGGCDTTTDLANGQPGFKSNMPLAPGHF
Procedure, shortened: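 Rat α1B receptor from Wistar rat liver was incubated with 0.25 nM [3H]prazosin for 60 min at 25 °C in 50 mM Tris-HCl, pH 7.4, 0.5 mM EDTA. Non-specific binding was defined with 10 μM phentolamine. Bound radioligand was measured by filtration and counting, reported as percent inhibition of specific binding.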

| Compound | Percentage inhibition of ligand binding, Adrenergic α2A (0.1 μM) [1] [%] | Percentage inhibition of ligand binding, Adrenergic α2B (0.03 μM) [2] [%] | Percentage inhibition of ligand binding, Adrenergic α1B (0.1 μM) [3] [%] | inhibition at 0.1 µM ([3]; read-out: Percentage inhibition of ligand binding, Adrenergic α1B (0.1 μM), compound at 0.1 μM) [%] |
| --- | --- | --- | --- | --- |
| CC1Cc2c(c3cc(Cl)ccc3n2CC(C)(O)c2cccnc2)CN1C (single isomer, unassigned) [II-147a, 1-(8-chloro-2,3-dimethyl-3,4-dihydro-1H-pyrido[4,3-b]indol-5(2H)-yl)-2-(pyridin-3-yl)propan-2-ol] | 57 | 102 | 32 |  |
| CC1Cc2c(c3cc(Cl)ccc3n2CC(C)(O)c2cccnc2)CN1C (single isomer, unassigned) [II-147b, 1-(8-chloro-2,3-dimethyl-3,4-dihydro-1H-pyrido[4,3-b]indol-5(2H)-yl)-2-(pyridin-3-yl)propan-2-ol] | 15 | 66 | 20 |  |
| CC1Cc2c(c3cc(Cl)ccc3n2CC(C)(O)c2cccnc2)CN1C (single isomer, unassigned) [II-147c, 1-(8-chloro-2,3-dimethyl-3,4-dihydro-1H-pyrido[4,3-b]indol-5(2H)-yl)-2-(pyridin-3-yl)propan-2-ol] | 3 | 38 | 7 |  |
| CC1Cc2c(c3cc(Cl)ccc3n2CC(C)(O)c2cccnc2)CN1C (single isomer, unassigned) [II-147d, 1-(8-chloro-2,3-dimethyl-3,4-dihydro-1H-pyrido[4,3-b]indol-5(2H)-yl)-2-(pyridin-3-yl)propan-2-ol] | 4 | 13 | 10 |  |
| Cc1ccc2c(c1)c1c(n2CC(C)(O)c2cccnc2)C(O)CN(C)C1 (single isomer, unassigned) [II-151a] | 1 | 27 |  | 11 |
| Cc1ccc2c(c1)c1c(n2CC(C)(O)c2cccnc2)C(O)CN(C)C1 (single isomer, unassigned) [II-151b] | 11 | 78 | 13 |  |
| Cc1ccc2c(c1)c1c(n2CC(CC(O)C(C)(C)C)c2ccncc2)CCN(C)C1 (single isomer, unassigned) [II-227a, 6-(2,8-dimethyl-1,2,3,4-tetrahydro-pyrido[4,3-b]indol-5-yl)-2,2-dimethyl-5-pyridin-4-yl-hexan-3-ol] | 15 | 86 | 25 |  |
| Cc1ccc2c(c1)c1c(n2CC(CC(O)C(C)(C)C)c2ccncc2)CCN(C)C1 (single isomer, unassigned) [II-227b, 6-(2,8-dimethyl-1,2,3,4-tetrahydro-pyrido[4,3-b]indol-5-yl)-2,2-dimethyl-5-pyridin-4-yl-hexan-3-ol] | 6 | 18 | 8 |  |
| Cc1ccc2c(c1)c1c(n2CC(CC(O)C(C)(C)C)c2ccncc2)CCN(C)C1 (single isomer, unassigned) [II-227c, 6-(2,8-dimethyl-1,2,3,4-tetrahydro-pyrido[4,3-b]indol-5-yl)-2,2-dimethyl-5-pyridin-4-yl-hexan-3-ol] | 24 | 94 | 20 |  |
| Cc1ccc2c(c1)c1c(n2CC(CC(O)C(C)(C)C)c2ccncc2)CCN(C)C1 (single isomer, unassigned) [II-227d, 6-(2,8-dimethyl-1,2,3,4-tetrahydro-pyrido[4,3-b]indol-5-yl)-2,2-dimethyl-5-pyridin-4-yl-hexan-3-ol] | 6 | 26 | 12 |  |

Now from value to compound:

| Percentage inhibition of ligand binding, Adrenergic α2A (0.1 μM) [1] [%] | Percentage inhibition of ligand binding, Adrenergic α2B (0.03 μM) [2] [%] | Percentage inhibition of ligand binding, Adrenergic α1B (0.1 μM) [3] [%] | inhibition at 0.1 µM ([3]; read-out: Percentage inhibition of ligand binding, Adrenergic α1B (0.1 μM), compound at 0.1 μM) [%] | Compound |
| --- | --- | --- | --- | --- |
| 3 | 16 | 13 |  | Cc1ccc2c(c1)c1c(n2CC(C)(O)c2cccnc2)CC(C)N(C)C1 (single isomer, unassigned) [II-146d, 2-(pyridin-3-yl)-1-(2,3,8-trimethyl-3,4-dihydro-1H-pyrido[4,3-b]indol-5(2H)-yl)propan-2-ol] |
| 53 | 104 | 90 |  | Cc1cnc2c(c1)c1c(n2CC(C)(O)c2ccc(F)cc2)CCN2CCCC12 (single isomer, unassigned) [II-149a, 2-(4-fluoro-phenyl)-1-(9-methyl-1,2,3,4,5,10c-hexahydro-3a,6,7-triazacyclopenta[c]fluoren-6-yl)-propan-2-ol] |
| 27 | 96 | 59 |  | Cc1cnc2c(c1)c1c(n2CC(C)(O)c2ccc(F)cc2)CCN2CCCC12 (single isomer, unassigned) [II-149b, 2-(4-fluoro-phenyl)-1-(9-methyl-1,2,3,4,5,10c-hexahydro-3a,6,7-triazacyclopenta[c]fluoren-6-yl)-propan-2-ol] |
| 5 | 41 | 49 |  | Cc1cnc2c(c1)c1c(n2CC(C)(O)c2ccc(F)cc2)CCN2CCCC12 (single isomer, unassigned) [II-149c, 2-(4-fluoro-phenyl)-1-(9-methyl-1,2,3,4,5,10c-hexahydro-3a,6,7-triazacyclopenta[c]fluoren-6-yl)-propan-2-ol] |
| 7 | 44 | 41 |  | Cc1cnc2c(c1)c1c(n2CC(C)(O)c2ccc(F)cc2)CCN2CCCC12 (single isomer, unassigned) [II-149d, 2-(4-fluoro-phenyl)-1-(9-methyl-1,2,3,4,5,10c-hexahydro-3a,6,7-triazacyclopenta[c]fluoren-6-yl)-propan-2-ol] |
| 6 | 61 | 2 |  | Cc1ccc2c(c1)c1c(n2CC(C)(O)c2cccnc2)CCN(C)C1C (single isomer, unassigned) [II-152b] |
| 1 | 14 | 6 |  | Cc1ccc2c(c1)c1c(n2CC(C)(O)c2cccnc2)CCN(C)C1C (single isomer, unassigned) [II-152c] |
